Among the data in US7420001B2 (Wyeth, priority 2003, dated 2008) are IC50 values, retold here.

One experiment addresses T1, MMP-13 (Homo sapiens, UniProt P45452).
T1 construct: made in house
The experiment can be described thus: In-vitro fluorescence assay of MMP-13 activity. Type of experiment: biochemical. Particulars: recombinant human catalytic domain of MMP-13; read-out: MMP-13 IC50.

The target in another experiment is T2, MMP-2 (Homo sapiens, UniProt P08253).
T2 construct: purchased Oncogene Research Products (Calbiochem) PF023
T2 sequence (P08253 110-660): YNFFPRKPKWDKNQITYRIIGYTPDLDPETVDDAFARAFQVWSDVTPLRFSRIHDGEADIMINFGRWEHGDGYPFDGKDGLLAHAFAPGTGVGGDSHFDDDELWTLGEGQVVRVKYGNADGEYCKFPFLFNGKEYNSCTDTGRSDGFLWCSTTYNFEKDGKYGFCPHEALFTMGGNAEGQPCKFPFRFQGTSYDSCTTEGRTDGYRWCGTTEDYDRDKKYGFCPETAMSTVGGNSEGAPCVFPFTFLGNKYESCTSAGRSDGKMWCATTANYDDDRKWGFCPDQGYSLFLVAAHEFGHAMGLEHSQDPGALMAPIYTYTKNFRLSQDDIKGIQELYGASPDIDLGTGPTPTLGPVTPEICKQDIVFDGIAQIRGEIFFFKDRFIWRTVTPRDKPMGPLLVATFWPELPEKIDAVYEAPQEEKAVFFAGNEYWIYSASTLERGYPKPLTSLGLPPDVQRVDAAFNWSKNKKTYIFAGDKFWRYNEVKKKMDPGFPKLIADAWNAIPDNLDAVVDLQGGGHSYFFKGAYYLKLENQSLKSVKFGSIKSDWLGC
The experiment can be described thus: In-vitro fluorescence assay of MMP-2 activity. Type of experiment: biochemical. The note with it: recombinant human MMP-2; read-out: MMP-2 IC50.

In a further experiment the target is T3, MMP-12 (Homo sapiens, UniProt P39900).
T3 construct: made in house
T3 sequence (P39900 106-280 limits assumed): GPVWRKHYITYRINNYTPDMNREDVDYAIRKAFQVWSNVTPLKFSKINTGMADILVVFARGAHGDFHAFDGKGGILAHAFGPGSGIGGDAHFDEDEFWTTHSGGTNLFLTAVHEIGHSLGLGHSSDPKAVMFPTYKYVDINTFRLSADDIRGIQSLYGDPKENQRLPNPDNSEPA
The experiment can be described thus: In vitro fluorescence assay of MMP-12 activity. Type of experiment: biochemical. Particulars: recombinant human MMP-12.

For the next experiment, the target named is T4, MMP-1 (Homo sapiens, UniProt P03956).
T4 sequence (P03956 100-269 limits assumed): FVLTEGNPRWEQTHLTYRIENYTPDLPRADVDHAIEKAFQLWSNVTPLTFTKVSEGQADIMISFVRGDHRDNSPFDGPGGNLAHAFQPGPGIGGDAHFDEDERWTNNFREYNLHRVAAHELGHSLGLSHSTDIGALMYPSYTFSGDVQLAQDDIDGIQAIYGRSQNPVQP

Another experiment addresses T5, MMP-14 (Homo sapiens, UniProt P50281).
T5 construct: 20 kDa; purchased Chemicon International, Inc. CC 1041
Nature of the experiment: In-vitro fluorescence assay of MMP-14 activity. The format is biochemical.

[1] abbreviates: recombinant human catalytic domain of MMP-14.

pIC50: −log10 of the molar value. Where two headings read alike, the source gives them in different places.

Experimental for MMP-12: A continuous, assay was used in which the substrate is a synthetic peptide containing a fluorescent group (7-methoxycoumarin; Mca) which is quenched by energy transfer to a 2,4-dinitrophenyl group. […] The concentration of the substrate stock was spectrophotometrically determined using the extinction coefficient at 410 nm of 7500 M^−1cm^−1. The assay buffer (pH 7.4) consisted of 50 mM Hepes, 100 mM NaCl, 5 mM CaCl2, and 0.005% Brij-35. […] The plates were then incubated at room temperature for 30 minutes. The enzymatic reactions were initiated by adding substrate to a final concentration of 20 μM and they were mixed by pipetting up and down. The final DMSO concentration in the assay was 10% and the final, total assay volume was 200 μl.
Experimental for MMP-14: A continuous assay was used in which the substrate is a synthetic peptide containing a fluorescent group (7-methoxycoumarin; Mca) which is quenched by energy transfer to a 2,4-dinitrophenyl group. […] The substrate used was Mca-PQGL-(3-[2,4-dinitrophenyl]-L-2,3-diaminopropionyl)-AR-OH (denoted as Wammp-5, custom synthesized by AnaSpec, Inc.). The assay buffer consisted of 50 mM Hepes (pH 7.4), 100 mM NaCl, 5 mM CaCl2, and 0.005% Brij-35. […] The enzymatic reactions were initiated by adding the substrate to a final concentration of 20 μM, and mixing 10 times with a pipette. The final DMSO concentration in the assay was 6.0%.
(§1) Plots of the inhibitor concentration vs. the percent inhibition were fit to the following equation: y=(a−d)/[1+(x/c)^b]+d, a general sigmoidal curve with Hill slope, a to d. x is the inhibitor concentration under test. y is the percent inhibition. a is the limiting response as x approaches zero. As x increases without bound, y tends toward its limit d. c is the inflection point (IC50) for the curve. That is, y is halfway between the lower and upper asymptotes when x=c. b is the slope factor or Hill coefficient.
Text for MMP-2: A continuous assay was used in which the substrate is a synthetic peptide containing a fluorescent group (7-methoxycoumarin; Mca) which is quenched by energy transfer to a 2,4-dinitrophenyl group. […] The source of enzyme in the assay was the recombinant human MMP-2 (66 kDa) purchased from Oncogene Research Products (catalog number PF023 from Calbiochem). The substrate used was Mca-PQGL-(3-[2,4-dinitrophenyl]-L-2,3-diaminopropionyl)-AR-OH (denoted as Wammp-5, custom synthesized by AnaSpec, Inc.). The assay buffer consisted of 50 mM Hepes (pH 7.4), 100 mM NaCl, 5 mM CaCl2, and 0.005% Brij-35. […] The enzymatic reactions were initiated by adding the substrate to a final concentration of 20 μM, and mixing 10 times with a pipette. The final DMSO concentration in the assay was 6.0%.
as §1

Regarding `Cc1c(C(=O)Nc2ccc(-c3ccc(S(=O)(=O)N[C@H](C(=O)O)C(C)C)cc3)cc2)oc2cccc(OCC3CC3)c12` [Example 51, L-2-{4′-[(4-Cyclopropylmethoxy-3-methyl-benzofuran-2-carbonyl)-amino]-biphenyl-4-sulfonylamino}-3-methyl-butyric acid], the pIC50 (usually the negative decadic logarithm of the IC50, by convention in mol/L) is 7.96 at MMP-13, 5.15 at MMP-2 and 6.73 on MMP-12.
In the same order, the values of `COc1cccc2oc(C(=O)Nc3ccc(-c4ccc(S(=O)(=O)N[C@H](C(=O)O)C(C)C)cc4)cc3)c(C)c12` [Example 105, (S)-2-{4′-[(4-Methoxy-3-methyl-benzofuran-2-carbonyl)-amino]-biphenyl-4-sulfonylamino}-3-methyl-butyric acid] are 8.02, 5.98 and 7.22.
The like results for `Cc1nn(C)c2sc(C(=O)Nc3ccc(-c4ccc(S(=O)(=O)N[C@H](C(=O)O)C(C)C)cc4)cc3)cc12` [Example 80, (S)-2-{4′-[(1,3-Dimethyl-1H-thieno[2,3-c]pyrazole-5-carbonyl)-amino]-biphenyl-4-sulfonylamino}-3-methyl-butyric acid] were, in that order, 7.37, 5.36 and 7.29.
In the same order, the values of `Cc1c(C(=O)Nc2ccc(-c3ccc(S(=O)(=O)N[C@H](C(=O)O)C(C)C)cc3)cc2)oc2cccc(C#CCN(C)C)c12` [Example 31, L-2-(4′-{[4-(3-Dimethylamino-prop-1-ynyl)-3-methyl-benzofuran-2-carbonyl]-amino}-biphenyl-4-sulfonylamino)-3-methyl-butyric acid] are 7.80, 5.84 and 6.81.
Take `CC(C)[C@@H](NS(=O)(=O)c1ccc(-c2ccc(NC(=O)c3nc4ccccc4s3)cc2)cc1)C(=O)O` [Example 152, D-2-{4′-[(Benzothiazole-2-carbonyl)-amino]-biphenyl-4-sulfonylamino}-3-methyl-butyric acid]: the pIC50 on MMP-13 is 9.15; on MMP-12, 8.96.
As to `CC(C)[C@H](NS(=O)(=O)c1ccc(-c2ccc(NC(=O)c3ccco3)cc2)cc1)C(=O)O` [Example 175, (S)-2-{4′-[(Furan-2-carbonyl)-amino]-biphenyl-4-sulfonylamino}-3-methyl-butyric acid], the pIC50 at MMP-13 was 7.96; on MMP-2, 8.24; at MMP-1 it was 5.51; on MMP-14 (setting [1]) it was 5.54.
`COc1c(Br)ccc2oc(C(=O)Nc3ccc(-c4ccc(S(=O)(=O)N[C@H](C(=O)O)C(C)C)cc4)cc3)c(C)c12` [Example 118, (S)-2-{4′-[(5-bromo-4-methoxy-3-methyl-benzofuran-2-carbonyl)-amino]-biphenyl-4-sulfonylamino}-3-methyl-butyric acid]: the pIC50 is 8.64 on MMP-13; 5.77 at MMP-2; 4.52 at MMP-1 (read-out: MMP-1 IC50, recombinant human catalytic domain of MMP-1); 4.84 against MMP-14.
`CC(C)[C@H](C(=O)O)N(C)S(=O)(=O)c1ccc(-c2ccc(NC(=O)c3cc4ccccc4o3)cc2)cc1` [Example 77, N-({4′-[(1-benzofuran-2-ylcarbonyl)amino]-1,1′-biphenyl-4-yl}sulfonyl)-N-methyl-D-valine]: the negative logarithm of the IC50 (pIC50) is 8.24 on MMP-13, 8.22 on MMP-2, 4.82 at MMP-1 and 5.15 on MMP-14 (setting [1]).
The like results for `CC(C)[C@H](NS(=O)(=O)c1ccc(-c2ccc(NC(=O)c3cc4c(ccc5ccccc54)o3)cc2)cc1)C(=O)O` [Example 153, L-3-Methyl-2-{4′-[(naphtho[2,1-b]furan-2-carbonyl)-amino]-biphenyl-4-sulfonylamino}-butyric acid] were, in that order, 9.30, 7.85, 4.40 and 4.77.
